Experiments:
[1] = system: KU1919-GemCis cells; experiment: Metabolomics of intracellular taurine; format: cell-based, human; conditions: KU1919-GemCis cells with knockdown of NPEPPS, 10 μM cisplatin
Method: Given that VRACs transport cisplatin and carboplatin and finding NPEPPS in complex with VRAC subunits (FIGS. 4C-4D), NPEPPS may be a negative regulator of VRAC activity, consequently reducing import of intracellular cisplatin. Thus, the impact of NPEPPS on osmolytes known to be transported through VRACs was assessed.
Metabolomics. Sample preparation. Cell lines were cultured for several passages in IMDM+10% FBS (IMDM10). Prior to experiment, cells were cultured in IMDM10 to ˜80% confluence and then dissociated. For dissociation, cells were washed once with room temperature PBS and then incubated with PBS+0.05% Trypsin-EDTA for 10-15 minutes. Cells were neutralized with IMDM10 and then fully dissociated by gentle pipetting. After dissociation, cells were counted by Trypan blue staining and then replated at 1×10^6 cells. 24 hours after plating, cells were treated with either IMDM10 or IMDM10+10 μM cisplatin. Day 0 cell cultures were immediately processed for metabolomics analysis. […] Cells were suspended in PBS, centrifuged a second time, and then resuspended in PBS and counted. […]
Data generation and analysis. […] Supernatants were clarified by centrifugation (10 minutes, 18,000 g, 4° C.) and 10 μL analyzed using a Thermo Vanquish UHPLC coupled to a Thermo Q Exactive mass spectrometer. […]

[2] = system: bladder tumor-derived organoids; experiment: Tumor-derived organoid drug screening (alamarBlue viability, reseeding); format: cell-based, human
Method: Three independent organoid models derived from patients that failed between 4 to 6 cycles of neoadjuvant gemcitabine plus cisplatin chemotherapy (FIG. 10A). The organoids mimicked the morphological and genomic characteristics of the tumor from which they were derived (FIG. 10B). These organoids were treated with increasing doses of cisplatin and 20 μM of tosedostat.
Tumor-derived Organoids. Culture of the organoids. Human bladder tissue was obtained from the Erasmus MC Bladder Cancer Center, Rotterdam, the Netherlands. Bladder tumor-derived organoids from biopsies obtained through TURBT or cystectomy. Briefly, bladder tissues were washed with Advanced DMEM/F12 (Gibco) supplemented with 10 mM HEPES (Gibco), 1% GlutaMax (Gibco) and 100 μg/ml primocin (InvivoGen), henceforth Ad+++. Tissue was minced and incubated at 37° C. with the digestion solution (collagenase 2.5 mg/ml in EBSS) and isolated cells were passed through […] strainer (Falcon), washed with Ad+++ and seeded in 50 μl drops of BME (R&D system) containing 10000-15000 cells in 24 well suspension plates (Greiner). Bladder tumor organoids were cultured in a culture medium containing Ad+++ supplemented with 1×B-27 (Gibco), 1.25 mM N-acetylcysteine (Sigma), 10 mM nicotinamide, 20 μM TGFβ receptor inhibitor A83-01, 100 ng/ml recombinant human FGF10 (Peprotech), 25 ng/ml recombinant human FGF7 (Peprotech), 12.5 ng/ml recombinant human FGF2 (Peprotech), 10 μM Y27632 Rho Kinase (ROCK) Inhibitor (Sigma) and conditioned media for recombinant Rspondin (2.5% v/v), and Wnt3A (2.5% v/v). The medium was changed every three days. Organoids were passaged at a 1:3 to 1:6 ratio every 7 days using cell dissociation solution-non enzymatic (Sigma) and plated in fresh BME matrix droplets.
Drug screening. Organoids were collected 7 days after passaging, passed through a […] strainer and 1000 organoids were seeded per well of a 48-well plate in BME matrix droplets. After 24 hours cisplatin (Sigma) resuspended in PBS was added at different concentrations (2, 10, 25, and 50 μM) with or without tosedostat (20 μM) (Tocris) resuspended in DMSO. All wells were adjusted to contain less than 0.7% DMSO. Organoids were cultured for the first 6 days in the presence of drugs followed by drug withdrawal, where organoids were grown in organoid culture media for 10 days. The entire content of the wells in different treatment groups was collected, washed and reseeded after disaggregation in fresh BME, and cultured for 6 days. Cell viability was assayed using alamarBlue (Invitrogen) according to the manufacturer's instructions after 6 days of drug incubation, 10 days of drug withdrawal, and 6 days post reseeding. Viability data was normalized using organoid wells treated with vehicle control.

N.N.[Cl][Pt][Cl] [cisplatin]
intracellular levels of taurine [1]: reduced even further
organoid growth after reseeding in new growth conditions ([2]; 2 μM cisplatin alone): able to re-grow
organoid killing ([2]; cisplatin alone at 25 μM): all organoids were killed

Source: patent US20240050392A1, “COMPOSITIONS AND METHODS FOR IMPROVED TREATMENT OF PLATINUM-BASED CHEMOTHERAPEUTIC RESISTANT TUMORS” (THE REGENTS OF THE UNIVERSITY OF THE COLORADO, A BODY …, priority 2021, published 2024)
